Patent publication US8697081B2, “Method of modulating neovascularization” (The Regents of the University of Michigan, priority 2008, dated 2014)

Assays:
Format in all cases: cell-based
[1] = test system: Human umbilical vein endothelial cells; assay: Protein synthesis in 3-D-embedded endothelial cells; settings: growth factor-stimulated cells
Text: The laminar network of type A and type B lamins directly or indirectly binds chromatin and DNA, as well as a variety of inner nuclear membrane proteins functionally linked to nuclear architecture and mechanical integrity, chromatin organization, gene regulation, and DNA replication (Crisp and Burke, supra; Dechat et al., supra; Starr, supra).

[2] = test system: Human umbilical vein endothelial cells; assay: VEGF/HGF-triggered vasculogenesis in 3-D fibrin gel, or growth in 2-D culture; settings: for growth of VEGF/HGF-stimulated endothelial cells: 2-D culture atop fibrin gels; for elongation, proliferation and neovessel formation: 3-D fibrin gel
Text: (§1) At sites of tissue damage, inflammation or neoplasia, fibrinogen is converted into a 3-D meshwork of fibrin fibrils that serve as a structural support for endothelial cells undergoing neovascularization (Chun et al. 2006. Cell, 125: 577-591; Hiraoka et al. 1998. Cell, 95: 365-377; Schafer and Werner. 2008. Nat. Rev. Mol. Cell Biol., 9: 628-638; Zhou et al. 2008. Genes Dev., 22: 1231-1243). This process can be recapitulated in vitro by embedding serum-supplemented human endothelial cells within a 3-D fibrin gel in the presence of the pro-angiogenic factors, VEGF and HGF. Human umbilical vein endothelial cells were isolated from umbilical cords by perfusion of the umbilical vein with type 3 collagenase (Worthington, Lakewood, N.J.) and cultured in Medium-199 (Invitrogen, Carlsbad, Calif.) with 20% human serum and 50 μg/ml endothelial cell growth supplement (ECGS; BD Biosciences, Franklin Lakes, N.J.). For 3-D culture, endothelial cells were suspended in a solution of thrombin and aprotinin (Sigma, St. Louis, Mo.) and mixed 1:1 with a solution of 6 mg/ml fibrinogen (Calbiochem, Gibbstown, N.J.). Vasculogenesis was triggered by treatment with 100 ng/ml VEGF, 50 ng/ml HGF (Genentech, San Francisco, Calif.). Fibronectin fibrillogenesis was tracked in 3-D by co-culture with human fibronectin (Sigma) labeled with Alexa-594 (Invitrogen).
In the presence of VEGF and HGF, endothelial cells i) underwent marked changes in cell morphology from spherical to elongated, ii) mobilized proteinases which degrade the surrounding fibrin, iii) assembled a pericellular meshwork of fibronectin fibrils, and iv) initiated proliferative and tubulogenic responses that result in the formation of an anastomosing network of neovessels over a 6 day culture period (Hiraoka, supra; Saunders et al., 2006. J Cell Biol. 175: 179-191; Zhou et al., 2008. Proc. Natl. Acad. Sci. USA, 97: 4052-4057). […] Cell, 125: 757-767; Saunders et al., supra; Tomasini-Johansson et al., 2001. J. Biol. Chem., 276: 23430-23439; Zhou et al, supra). Endothelial cells cultured atop—rather than embedded within—fibrin gels (herein referred to as 2-D culture) display distinct growth requirements from those observed in 3-D culture.
Taken together, cytoskeletal reorganization and contractile tension may serve as the biomechanical effectors that transmit structural and mechanical cues from the pericellular ECM to the nuclear envelope. VEGF/HGF-stimulated endothelial cells were treated with either (a) blebbistatin to inhibit myosin ATPase function, or (b) nocodazole to prevent microtubule assembly under 3-D culture conditions (Salpingidou et al., 2007. J. Cell Biol., 178: 897-904; Zhou et al., supra).

[3] = test system: Human umbilical vein endothelial cells; assay: Nuclear architecture (GFP-lamin A, emerin) and nuclear pore complex (NUP153) distribution; settings: for nuclear architecture: 2-D conditions; for nuclear shape / redistribution of nuclear pore complexes: 3-D fibrin gel
Text: as §1
As the 3-D-specific requirements for MT-MMPs and fibronectin matrix assembly correlate with changes in endothelial cell morphology, efforts were initiated to identify mechanistic routes whereby cell shape changes impact cell function. In particular, the impact of ECM remodeling on nuclear architecture was investigated. Nuclear architecture was tracked by either transfecting cells with a GFP-tagged form of the nuclear matrix filament, lamin A, or by immunostaining for the integral nuclear membrane protein, emerin (Dahl et al., 2008. Circ. Res., 102: 1307-1318; Glynn and Glover, 2005. Hum. Mol. Genet., 14: 2959-2969; Starr, 2009. J. Cell Sci., 122: 577-586; Stewart et al., 2007. Science, 318: 1408-1412). Under 2-D conditions, endothelial cell nuclei assumed an ellipsoid shape when cultured atop fibrin gels in the absence or presence of VEGF/HGF. In marked contrast, under 3-D conditions, endothelial cells cultured within fibrin gels in the absence of VEGF/HGF unexpectedly display a distorted morphology with multiple lamin A matrix and emerin infoldings and surface irregularities. Upon addition of VEGF/HGF, however, the nuclei of fibrin-embedded endothelial cells undergo a dramatic, and 3-D-specific, remodeling to assume a more classic, ovoid morphology. Three-dimensional reconstructions of DAPI-stained nuclei confirm that nuclear architecture transitions between multi-lobed and smooth elliptical shapes in the absence or presence, respectively, of VEGF/HGF.
Nuclear matrix architecture controls the distribution of the nuclear pore complexes that regulate the trafficking of protein and RNA across the nuclear envelope (Goldman et al., 2004. Proc. Natl. Acad. Sci. USA, 101: 8963-8968; Hawryluk-Gara et al., 2005. Mol. Biol. Cell, 16: 2382-2394; Liu et al., 2007. J. Cell. Biol., 178: 785-798). As such, the localization of nuclear pores was assessed in intact cells by monitoring the localization of the component protein, NUP153. In 3-D culture, unstimulated endothelial cells accumulate NUP153-containing pore complexes at nuclear membrane invaginations. In contrast, the nuclei of VEGF/HGF-stimulated endothelial cells display a uniform distribution of pore complexes in nuclear membranes.
To determine the roles of MMP-dependent proteolysis and fibronectin matrix assembly in mediating nuclear shape and nuclear pore complex changes, fibrin-embedded endothelial cells were stimulated with VEGF/HGF in the presence of FUD or GM6001. […]

[4] = test system: Human umbilical vein endothelial cells; assay: Nucleoli and nuclear speckle morphology (fibrillarin, SC-35 immunostaining); settings: for fibrillarin or SC-35 distribution: 2-D culture conditions; for patterns of fibrillarin and SC-35 staining: 3-D culture, VEGF/HGF-stimulated
Text: as §1
The morphology of nucleoli and nuclear speckles—which serve, respectively, as ribosomal RNA and pre-mRNA processing sites—was assessed by immunostaining for fibrillarin (a pre-rRNA processing protein) or SC-35 (a pre-mRNA splicing protein) (Tang et al., supra). […] Likewise, nuclear speckle morphology changed from a small number of large foci to more numerous, smaller foci.

[5] = test system: Human umbilical vein endothelial cells; assay: RNA synthesis (transcriptional activity) in cultured endothelial cells; settings: for transcriptional activity: 2-D culture conditions; for VEGF/HGF induction of transcriptional activity (RNA synthesis) / mRNA and rRNA synthesis inhibited: 3-D culture; for mRNA and rRNA synthesis inhibited: low dose actinomysin D used to separate rRNA synthesis, data not shown
Text: as §1
VEGF/HGF-induced chromatin dispersion, histone acetylation, and nuclear speckle decompaction observed in 3-D culture are consistent with global activation of transcription (Lamond and Spector, 2003. Nat. Rev. Mil. Cell Biol., 4: 605-612; Tang et al., supra). As such, RNA synthesis was quantified in cultured endothelial cells. […] Under 2-D culture conditions, transcriptional activity proceeded independently of pericellular ECM remodeling and was unaffected by FUD or GM6001.

[6] = 3-D culture, VEGF/HGF-stimulated, blebbistatin or nocodazole

FUD: 49-residue functional upstream domain of Streptococcus pyogenes F1 adhesion protein, SEQ ID NO: 10; fibronectin fibril assembly inhibitor (KDQSPLAGESGETEYITEVYGNQQNPVDIDKKLPNETGFSGNMVETEDT; Streptococcus pyogenes; Functional Upstream Domain (FUD) of F1 adhesion protein)
protein synthesis [1]: no major changes
growth of VEGF/HGF-stimulated endothelial cells [2]: neither GM6001 nor FUD affect the growth
elongation, proliferation and neovessel formation ([2]; VEGF/HGF-stimulated): failed to elongate, proliferate or form neovessels
nuclear architecture [3]: unaffected
TUNEL staining with formation of multi-lobed nuclei ([3]; 3-D culture): does not correlate with increased TUNEL staining
nuclear shape ([3]; VEGF/HGF-stimulated): locked endothelial cell nuclei into the multi-lobular conformation
redistribution of nuclear pore complexes ([3]; VEGF/HGF-stimulated): completely failed to redistribute
fibrillarin or SC-35 distribution [4]: did not affect
patterns of fibrillarin and SC-35 staining [4]: reversed to that resembling unstimulated endothelial cells
transcriptional activity [5]: unaffected
VEGF/HGF induction of transcriptional activity (RNA synthesis) [5]: attenuated significantly
mRNA and rRNA synthesis inhibited [5]: ~50%

CNC(=O)[C@H](Cc1c[nH]c2ccccc12)NC(=O)[C@@H](CC(=O)NO)CC(C)C [GM6001]
protein synthesis [1]: no major changes
growth of VEGF/HGF-stimulated endothelial cells [2]: neither GM6001 nor FUD affect the growth
elongation, proliferation and neovessel formation ([2]; VEGF/HGF-stimulated): failed to elongate, proliferate or form neovessels
nuclear architecture [3]: unaffected
TUNEL staining with formation of multi-lobed nuclei ([3]; 3-D culture): does not correlate with increased TUNEL staining
nuclear shape ([3]; VEGF/HGF-stimulated): locked endothelial cell nuclei into the multi-lobular conformation
redistribution of nuclear pore complexes ([3]; VEGF/HGF-stimulated): completely failed to redistribute
fibrillarin or SC-35 distribution [4]: did not affect
patterns of fibrillarin and SC-35 staining [4]: reversed to that resembling unstimulated endothelial cells
transcriptional activity [5]: unaffected
VEGF/HGF induction of transcriptional activity (RNA synthesis) [5]: attenuated significantly
mRNA and rRNA synthesis inhibited [5]: ~50%

Cc1ccc2c(c1)C(=O)C1(O)CCN(c3ccccc3)C1=N2 (centres unmarked) [blebbistatin]
endothelial cell 3-D tubulogenesis [2, 6]: completely inhibit
nuclear shape and nuclear pore distribution [3, 6]: multi-lobed nuclei with perturbations in nuclear pore distribution
